Here are results for 77 sequences from the supplement of paper PMC11208160.

The nature of this data set: recombinant barcode read abundance after kanamycin selection (control-corrected) (log10(CPM+1)); higher = more efficient recombination; sequences stand for … in AGTGCAGAGAAAATCGGCCAGTTTTCTCTGCCTGCAGTCCGCATGCCGT…AGATTTATGCAGCGGACTGCCTTTCTCCCAAAGTGATAAACCGGACAGTATCATGGACCGGTTTTCCCGGTAATCCGTATTTGCAAGGTTGGTTTCACT; site = the 11-nt target. In short, it runs like this:
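For this pooled screen, each oligo contained a promoter, a target, a barcode and the J23119-driven first 104 bases of the bridge RNA. Gibson cloning placed it into a vector supplying the remaining 73 bp and a T7-inducible recombinase, and the pool was co-electroporated into E. coli with a donor plasmid. Recombination efficiency is derived from barcode counts per million at recombinant junctions after averaging and control correction, and is expressed on a log scale as log10(CPM+1), with selection on chloramphenicol/ampicillin/kanamycin plus 0.1 mM IPTG against a chloramphenicol/ampicillin LB agar control.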
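Note: IS621 recombinase and bridge RNA in Escherichia coli cells.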

With “TGTGAGTCTTGGGTTCTAACCTGTTGCCT (site TGTGAGTCTAG)”, the “recombinant barcode read abundance (log10)” value was 1.1.

Take “TGTGAGTCTTGGGTTCTAACCTGTTGCCT (site TGTGAGTCTAT)”: the “recombinant barcode read abundance (log10)” value came out at 0.0543.

As for “TGTGAGTCTTGGGTTCTAACCTGTTGCTT (site TGTGAGTCTAA)”, the “recombinant barcode read abundance (log10)” value was determined as 0.549.

“TGTGAGTCTTGGGTTCTAACCTGTTGCTT (site TGTGAGTCTAC)”: the “recombinant barcode read abundance (log10)” value is 0.0217.

As for “TGTGAGTCTTGGGTTCTAACCTGTTGCTT (site TGTGAGTCTAG)”, the “recombinant barcode read abundance (log10)” value stood at 0.193.

Consider “TGTGAGTCTTGGGTTCTAACCTGTTGCTT (site TGTGAGTCTAT)”, for which the “recombinant barcode read abundance (log10)” value was determined as 0.799.

Take “TGTGGGTCTTGGGTTCTAACCTGTTGCCT (site TATGGGTCTAG)”: the “recombinant barcode read abundance (log10)” value was 0.0229.

“TGTGGGTCTTGGGTTCTAACCTGTTGCCT (site TGTGGGTCTAG)”: the “recombinant barcode read abundance (log10)” value worked out at 0.393.

“TGTGTCCCTTGGGTTCTAACCTGTTGCCG (site TGTCTCCCTCG)”: the “recombinant barcode read abundance (log10)” value turned out to be 0.0681.

In the case of “TGTGTCCCTTGGGTTCTAACCTGTTGCCG (site TGTGTCCCTCG)”, the “recombinant barcode read abundance (log10)” value worked out at 1.1.

“TGTTAGCCTTGGGTTCTAACCTGTTGCCA (site GGTTAGCCTAG)”: the “recombinant barcode read abundance (log10)” value stood at 0.0168.

For “TGTTAGCCTTGGGTTCTAACCTGTTGCCA (site TGTTAGCCTTG)”, the “recombinant barcode read abundance (log10)” value came out at 0.0869.

In the case of “TGTTAGCCTTGGGTTCTAACCTGTTGCCT (site GGCTAGCCTAG)”, the “recombinant barcode read abundance (log10)” value came out at 0.0606.

Regarding “TGTTAGCCTTGGGTTCTAACCTGTTGCCT (site TGTTAGCCTAG)”, the “recombinant barcode read abundance (log10)” value worked out at 0.0878.

“TGTTGCACTTGGGTTCTAACCTGTTGCCT (site TGTTGCACTAG)”: the “recombinant barcode read abundance (log10)” value amounted to 0.0616.

Take “TGTTGCACTTGGGTTCTAACCTGTTGCCT (site TGTTGGCCTAG)”: the “recombinant barcode read abundance (log10)” value came out at 0.0587.

Consider “TTAACTACTTGGGTTCTAACCTGTTGCTC (site TTAACTACTAA)”, for which the “recombinant barcode read abundance (log10)” value stood at 0.0118.

Take “TTAACTACTTGGGTTCTAACCTGTTGCTC (site TTAACTACTCA)”: the “recombinant barcode read abundance (log10)” value amounted to 0.126.

Regarding “TTAACTACTTGGGTTCTAACCTGTTGCTC (site TTAACTACTGA)”, the “recombinant barcode read abundance (log10)” value was 0.195.

For the sequence “TTAACTACTTGGGTTCTAACCTGTTGCTC (site TTAACTACTTA)”, the “recombinant barcode read abundance (log10)” value worked out at 0.

With “TTAAGACCTTGGGTTCTAACCTGTTGCCT (site TTAAGACCTAG)”, the “recombinant barcode read abundance (log10)” value was 1.37.

Take “TTAAGACCTTGGGTTCTAACCTGTTGCCT (site TTAAGCCCTAG)”: the “recombinant barcode read abundance (log10)” value came to 0.336.

Take “TTAAGTCCTTGGGTTCTAACCTGTTGCCT (site TTAAGTCCTAG)”: the “recombinant barcode read abundance (log10)” value was 0.448.

As to “TTAAGTCCTTGGGTTCTAACCTGTTGCCT (site TTCAGTCCTAT)”, the “recombinant barcode read abundance (log10)” value was found to be 0.134.

For “TTACAATCTTGGGTTCTAACCTGTTGCCT (site ATACAATCTAG)”, the “recombinant barcode read abundance (log10)” value is 0.31.

In the case of “TTACAATCTTGGGTTCTAACCTGTTGCCT (site CTACAATCTAG)”, the “recombinant barcode read abundance (log10)” value is 0.337.

Take “TTACAATCTTGGGTTCTAACCTGTTGCCT (site GTACAATCTAG)”: the “recombinant barcode read abundance (log10)” value is 0.0953.

“TTACAATCTTGGGTTCTAACCTGTTGCCT (site TTACAATCTAG)”: the “recombinant barcode read abundance (log10)” value was 0.764.

With “TTACCTACTTGGGTTCTAACCTGTTGCCT (site TTACCAACTAG)”, the “recombinant barcode read abundance (log10)” value turned out to be 0.237.

Regarding “TTACCTACTTGGGTTCTAACCTGTTGCCT (site TTACCCACTAG)”, the “recombinant barcode read abundance (log10)” value was 0.0698.

With “TTACCTACTTGGGTTCTAACCTGTTGCCT (site TTACCGACTAG)”, the “recombinant barcode read abundance (log10)” value came out at 0.278.

As to “TTACCTACTTGGGTTCTAACCTGTTGCCT (site TTACCTACTAG)”, the “recombinant barcode read abundance (log10)” value was determined as 0.802.

Consider “TTACGAGCTTGGGTTCTAACCTGTTGCCT (site TCACTAGCTAG)”, for which the “recombinant barcode read abundance (log10)” value amounted to 0.131.

As to “TTACGAGCTTGGGTTCTAACCTGTTGCCT (site TTACGAGCTAG)”, the “recombinant barcode read abundance (log10)” value came out at 1.08.

Regarding “TTACGCACTTGGGTTCTAACCTGTTGCCT (site TAACCCACTAG)”, the “recombinant barcode read abundance (log10)” value came out at 0.264.

In the case of “TTACGCACTTGGGTTCTAACCTGTTGCCT (site TTACGCACTAG)”, the “recombinant barcode read abundance (log10)” value came out at 1.34.

Take “TTACGCGCTTGGGTTCTAACCTGTTGCGG (site TTACGAGCTCC)”: the “recombinant barcode read abundance (log10)” value worked out at 0.258.

With “TTACGCGCTTGGGTTCTAACCTGTTGCGG (site TTACGCGCTCC)”, the “recombinant barcode read abundance (log10)” value is 1.67.

In the case of “TTACGCGCTTGGGTTCTAACCTGTTGCGG (site TTACGGGCTCC)”, the “recombinant barcode read abundance (log10)” value stood at 0.0728.

Take “TTACGCGCTTGGGTTCTAACCTGTTGCGG (site TTACGTGCTCC)”: the “recombinant barcode read abundance (log10)” value amounted to 0.0492.

Regarding “TTAGACTCTTGGGTTCTAACCTGTTGCCA (site TTAGACTCTTA)”, the “recombinant barcode read abundance (log10)” value was 0.0659.

As for “TTAGACTCTTGGGTTCTAACCTGTTGCCA (site TTAGACTCTTG)”, the “recombinant barcode read abundance (log10)” value is 1.06.

Take “TTAGCTTCTTGGGTTCTAACCTGTTGCCT (site TTAGCATCTAG)”: the “recombinant barcode read abundance (log10)” value was found to be 0.078.

With “TTAGCTTCTTGGGTTCTAACCTGTTGCCT (site TTAGCCTCTAG)”, the “recombinant barcode read abundance (log10)” value came to 0.0176.

“TTAGCTTCTTGGGTTCTAACCTGTTGCCT (site TTAGCGTCTAG)”: the “recombinant barcode read abundance (log10)” value was found to be 0.0371.

Take “TTAGCTTCTTGGGTTCTAACCTGTTGCCT (site TTAGCTTCTAG)”: the “recombinant barcode read abundance (log10)” value stood at 0.163.

Regarding “TTATACACTTGGGTTCTAACCTGTTGCAG (site CAGCGGTCTTC)”, the “recombinant barcode read abundance (log10)” value stood at 0.0563.

Consider “TTATACACTTGGGTTCTAACCTGTTGCAG (site TTATACACTCT)”, for which the “recombinant barcode read abundance (log10)” value is 1.98.

As to “TTATGAGCTTGGGTTCTAACCTGTTGCCG (site ATATGAGCTTG)”, the “recombinant barcode read abundance (log10)” value stood at 0.012.

With “TTATGAGCTTGGGTTCTAACCTGTTGCCG (site TTATGAGCTCG)”, the “recombinant barcode read abundance (log10)” value is 1.2.

Take “TTATGGTCTTGGGTTCTAACCTGTTGCTA (site TCTTGGTCTTA)”: the “recombinant barcode read abundance (log10)” value is 0.257.

“TTATGGTCTTGGGTTCTAACCTGTTGCTA (site TTATGGTCTTA)”: the “recombinant barcode read abundance (log10)” value stood at 0.705.

For “TTATTGTCTTGGGTTCTAACCTGTTGCCT (site TTATTGTCTAG)”, the “recombinant barcode read abundance (log10)” value was 1.37.

For “TTATTGTCTTGGGTTCTAACCTGTTGCCT (site TTCTTGCCTAG)”, the “recombinant barcode read abundance (log10)” value was determined as 0.024.

Consider “TTCAAACCTTGGGTTCTAACCTGTTGCCT (site TTCAAAACTAG)”, for which the “recombinant barcode read abundance (log10)” value was found to be 0.0532.

For “TTCAAACCTTGGGTTCTAACCTGTTGCCT (site TTCAAACCTAG)”, the “recombinant barcode read abundance (log10)” value came out at 0.612.

Take “TTCAAACCTTGGGTTCTAACCTGTTGCCT (site TTCAAAGCTAG)”: the “recombinant barcode read abundance (log10)” value came to 0.0476.

With “TTCAAACCTTGGGTTCTAACCTGTTGCCT (site TTCAAATCTAG)”, the “recombinant barcode read abundance (log10)” value worked out at 0.115.

With “TTCAAATCTTGGGTTCTAACCTGTTGCCT (site TTCAAAACTAG)”, the “recombinant barcode read abundance (log10)” value was 0.0847.

With “TTCAAATCTTGGGTTCTAACCTGTTGCCT (site TTCAAACCTAG)”, the “recombinant barcode read abundance (log10)” value worked out at 0.242.

As to “TTCAAATCTTGGGTTCTAACCTGTTGCCT (site TTCAAAGCTAG)”, the “recombinant barcode read abundance (log10)” value was 0.182.

As to “TTCAAATCTTGGGTTCTAACCTGTTGCCT (site TTCAAATCTAG)”, the “recombinant barcode read abundance (log10)” value came to 0.

On to “TTCAAGCCTTGGGTTCTAACCTGTTGCCT (site TTCAAGACTAG)”, for which the “recombinant barcode read abundance (log10)” value came to 0.0598.

For the sequence “TTCAAGCCTTGGGTTCTAACCTGTTGCCT (site TTCAAGCCTAG)”, the “recombinant barcode read abundance (log10)” value was 0.329.

As to “TTCAAGCCTTGGGTTCTAACCTGTTGCCT (site TTCAAGGCTAG)”, the “recombinant barcode read abundance (log10)” value was determined as 0.0261.

For “TTCAAGCCTTGGGTTCTAACCTGTTGCCT (site TTCAAGTCTAG)”, the “recombinant barcode read abundance (log10)” value amounted to 0.0767.

With “TTCACACCTTGGGTTCTAACCTGTTGCCT (site TTCACACCTAG)”, the “recombinant barcode read abundance (log10)” value stood at 0.385.

“TTCACACCTTGGGTTCTAACCTGTTGCCT (site TTCACAGCTAG)”: the “recombinant barcode read abundance (log10)” value stood at 0.00569.

In the case of “TTCAGGGCTTGGGTTCTAACCTGTTGCAG (site AGAGCCTCTTA)”, the “recombinant barcode read abundance (log10)” value came to 0.111.

In the case of “TTCAGGGCTTGGGTTCTAACCTGTTGCAG (site TTCAGGGCTCT)”, the “recombinant barcode read abundance (log10)” value amounted to 1.99.

Consider “TTCATACCTTGGGTTCTAACCTGTTGCTT (site GTCTTACCTAA)”, for which the “recombinant barcode read abundance (log10)” value was found to be 0.0129.

For the sequence “TTCATACCTTGGGTTCTAACCTGTTGCTT (site TTCATACCTAA)”, the “recombinant barcode read abundance (log10)” value was determined as 0.0848.

With “TTCATGTCTTGGGTTCTAACCTGTTGCTT (site CTCATGTCTAA)”, the “recombinant barcode read abundance (log10)” value is 0.138.

For the sequence “TTCATGTCTTGGGTTCTAACCTGTTGCTT (site TTCATGTCTAA)”, the “recombinant barcode read abundance (log10)” value stood at 0.421.

As for “TTCCACACTTGGGTTCTAACCTGTTGCGG (site TTCCAAACTCC)”, the “recombinant barcode read abundance (log10)” value was 0.116.

In the case of “TTCCACACTTGGGTTCTAACCTGTTGCGG (site TTCCACACTCC)”, the “recombinant barcode read abundance (log10)” value was found to be 1.04.

For “TTCCGCTCTTGGGTTCTAACCTGTTGCCT (site ATCCGCTCTAG)”, the “recombinant barcode read abundance (log10)” value turned out to be 0.112.
